Patent publication US9850283B2, “Macrocyclic inhibitors of the PD-1/PD-L1 and CD80(B7-1)/PD-L1 protein/protein interactions” (BRISTOL-MYERS SQUIBB COMPANY, priority 2013, dated 2017)
Where two headings read alike, the source gives them in different places. Positions of bridges follow the written chain, without caps; N, C: chain ends. Non-standard residues stand in square brackets, D forms with d. Residues, ends and D or L forms follow the SMILES beside them. ξ: configuration not given here. *: point of attachment. Phe(3,4-(OMe)2) = COc1ccc(C[C@H](N)C(=O)O)cc1OC; Phe(3-CF3) = N[C@@H](Cc1cccc(C(F)(F)F)c1)C(=O)O; Phe(3,4-F2) = N[C@@H](Cc1ccc(F)c(F)c1)C(=O)O; Bip = N[C@@H](Cc1ccc(-c2ccccc2)cc1)C(=O)O; Bta = N[C@@H](Cc1csc2ccccc12)C(=O)O; Hyp = O=C(O)[C@@H]1C[C@@H](O)CN1; NMeF = CN[C@@H](Cc1ccccc1)C(=O)O; NMeNle = CCCC[C@H](NC)C(=O)O; Pip = O=C(O)[C@@H]1CCCCN1; NMeA = CN[C@@H](C)C(=O)O; Orn = NCCC[C@H](N)C(=O)O; Dab = NCC[C@H](N)C(=O)O; Dap = NC[C@H](N)C(=O)O; Bn = c1ccc(C*)cc1; ξC = NC(CS)C(=O)O; Sar = CNCC(=O)O

Key:
[1] = biological target: T1, LK35.2-hPD-L1 cells / PE-labeled PD-1-Ig (Homo sapiens, UniProt Q9NZQ7); test: LK35.2-hPD-L1 cell binding high-content screening assay; format: cell-based
T1 construct: expressed in transfected cells; host or cells: LK35.2 mouse B cell line
T1 sequence (Q9NZQ7 19-290): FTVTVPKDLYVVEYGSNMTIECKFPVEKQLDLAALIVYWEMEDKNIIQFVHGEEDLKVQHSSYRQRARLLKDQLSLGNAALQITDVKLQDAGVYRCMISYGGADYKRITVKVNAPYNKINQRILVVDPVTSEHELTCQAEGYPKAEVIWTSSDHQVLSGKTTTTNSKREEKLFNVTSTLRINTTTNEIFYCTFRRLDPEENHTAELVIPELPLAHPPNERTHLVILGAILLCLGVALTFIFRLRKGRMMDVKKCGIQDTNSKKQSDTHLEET
How it was run: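 Binding of PE-conjugated human PD-1-Ig (1 nM final) to human PD-L1 stably expressed on a mouse B-cell line (LK35.2) was measured by high-content imaging after washes. Compound and labeled PD-1-Ig were co-incubated 1 h at 37 °C with cells in RPMI/10% FCS.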

Human PD-L1/PD-1 = biological target: T2, Human PD-L1/PD-1 (Homo sapiens, UniProt Q9NZQ7); test: HTRF PD-1-Ig/PD-L1-His binding assay (human PD-L1)
T2 construct: made in house; host or cells: HEK293T
T2 sequence (Q9NZQ7 with tags, fused parts or gaps): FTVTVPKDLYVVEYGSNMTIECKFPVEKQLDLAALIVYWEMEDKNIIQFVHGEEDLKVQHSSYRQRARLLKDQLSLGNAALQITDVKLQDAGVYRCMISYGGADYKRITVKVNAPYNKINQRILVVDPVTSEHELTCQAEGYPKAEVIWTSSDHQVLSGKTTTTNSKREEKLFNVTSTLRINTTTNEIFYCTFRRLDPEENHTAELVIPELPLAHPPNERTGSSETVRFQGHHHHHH
How it was run: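 Readout: time-resolved FRET between Eu cryptate-labeled anti-Ig (1 nM final) and APC-labeled anti-His (20 nM final) antibodies. These detect interaction of Fc-fused PD-1 with His-tagged human PD-L1 in dPBS containing 0.1% BSA and 0.05% Tween-20.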

[2] = cluster symbol, cell line of CBA not given (LK35.2-hPD-L1 or 293T-hPD-L1), read-out: CBA IC50 cluster
[3] = cluster symbol, read-out: HTRF IC50 cluster
[4] = cell binding assay, cell line not given, cluster symbol, read-out: CBA IC50 cluster

Compound | IC50 [1, 2] | IC50 (Human PD-L1/PD-1; [3]) | IC50 [1, 4] | IC50 ([1]; cell line of CBA not given (LK35.2-hPD-L1 or 293T-hPD-L1), read-out: CBA IC50 value) | IC50 (Human PD-L1/PD-1; read-out: HTRF IC50 value)
CCCC[C@H]1C(=O)N(C)[C@@H](CCCC)C(=O)N[C@@H](C)C(=O)N[C@H](C(=O)NCC(=O)O)CSCC(=O)N[C@@H](Cc2ccc(O)cc2)C(=O)N(C)[C@@H](C)C(=O)N[C@@H](CC(N)=O)C(=O)N2CCC[C@H]2C(=O)N[C@@H](Cc2cnc[nH]2)C(=O)N[C@@H](CC(C)C)C(=O)N[C@@H](CCCN)C(=O)N[C@@H](Cc2c[nH]c3ccccc23)C(=O)N[C@@H](CO)C(=O)N[C@@H](Cc2csc3ccccc23)C(=O)N1C [Example 1153] | 4.78 to 72.9 nM | > 30.5 nM | – | – | –
CCCC[C@H]1C(=O)N(C)[C@@H](CCCC)C(=O)N[C@@H](CCCNC(=N)N)C(=O)N[C@H](C(=O)NCC(N)=O)CSCC(=O)N[C@@H](Cc2cccc(C(F)(F)F)c2)C(=O)N(C)[C@@H](C)C(=O)N[C@@H](CC(N)=O)C(=O)N2CCC[C@H]2C(=O)N[C@@H](Cc2cnc[nH]2)C(=O)N[C@@H](CC(C)C)C(=O)N(C)CC(=O)N[C@@H](Cc2c[nH]c3ccccc23)C(=O)N[C@@H](CO)C(=O)N[C@@H](Cc2c[nH]c3ccccc23)C(=O)N1C [Example 1107] ({CH2CO}-[Phe(3-CF3)][NMeA]NPHL[Sar]WSW[NMeNle][NMeNle]RCG-NH2; thioether N-14) | > 74.3 nM | > 30.5 nM | – | – | –
CCCC[C@H]1C(=O)N(C)[C@@H](CCCC)C(=O)N[C@@H](C)C(=O)N[C@H](C(=O)NCC(N)=O)CSCC(=O)N[C@@H](Cc2ccc(O)cc2)C(=O)N(C)[C@@H](C)C(=O)N[C@@H](CC(=O)O)C(=O)N2CCC[C@H]2C(=O)N[C@@H](Cc2cnc[nH]2)C(=O)N[C@@H](CCC(N)=O)C(=O)N2CCC[C@H]2C(=O)N[C@@H](Cc2c[nH]c3ccccc23)C(=O)N[C@@H](CO)C(=O)N[C@@H](Cc2c[nH]c3ccccc23)C(=O)N1C [Example 6024] ({CH2CO}-Y[NMeA]DPHQPWSW[NMeNle][NMeNle]ACG-NH2; thioether N-14) | – | 0.385 to 6.74 nM | 0.158 to 4.71 nM | – | –
CCCC[C@H]1C(=O)N(C)CC(=O)N[C@@H](CC(=O)O)C(=O)N[C@@H](C(C)C)C(=O)N(C)[C@@H](Cc2ccccc2)C(=O)N[C@@H](Cc2ccc(O)cc2)C(=O)N(C)CC(=O)N[C@@H](Cc2c[nH]c3ccccc23)C(=O)N[C@@H](Cc2ccc(-c3ccccc3)cc2)C(=O)N[C@@H](CC(C)C)C(=O)N[C@H](C(=O)NCC(N)=O)CSCC(=O)N[C@@H](Cc2ccccc2)C(=O)N(C)[C@@H](Cc2ccccc2)C(=O)N1C [Example 3547] ({CH2CO}-F[NMeF][NMeNle][Sar]DV[NMeF]Y[Sar]W[Bip]LCG-NH2; thioether N-13) | – | > 30.5 nM | > 74.3 nM | – | –
CCCC[C@H]1C(=O)N(C)[C@@H](CCCC)C(=O)N[C@@H](CCCNC(=N)N)C(=O)NC(C(=O)N[C@@H](CO)C(N)=O)CSCC(=O)N[C@@H](Cc2ccc(O)cc2)C(=O)N(C)[C@@H](C)C(=O)N[C@@H](CC(N)=O)C(=O)N2CCC[C@H]2C(=O)N[C@@H](Cc2cnc[nH]2)C(=O)N[C@@H](CO)C(=O)N2C[C@H](O)C[C@H]2C(=O)N[C@@H](Cc2c[nH]c3ccccc23)C(=O)N[C@@H](CO)C(=O)N[C@@H](Cc2c[nH]c3ccccc23)C(=O)N1C (stereo partly shown) [Example 9079] ({CH2CO}-Y[NMeA]NPHS[Hyp]WSW[NMeNle][NMeNle]R[ξC]S-NH2; thioether N-14) | – | 0.385 to 6.74 nM | 4.78 to 72.9 nM | – | –
CCCC[C@H]1C(=O)N(C)[C@@H](CCCC)C(=O)N[C@@H](CCCN)C(=O)N[C@H](C(=O)NCC(N)=O)CSCC(=O)N[C@@H](Cc2ccccc2)C(=O)N(C)[C@@H](C)C(=O)N[C@@H](CC(N)=O)C(=O)N2CCC[C@H]2C(=O)N[C@@H](Cc2cnc[nH]2)C(=O)N[C@@H](CC(C)C)C(=O)N(C)CC(=O)N[C@@H](Cc2c[nH]c3ccccc23)C(=O)N[C@@H](CO)C(=O)N[C@@H](Cc2c[nH]c3ccccc23)C(=O)N1C [Example 1055] ({CH2CO}-F[NMeA]NPHL[Sar]WSW[NMeNle][NMeNle][Orn]CG-NH2; thioether N-14) | 4.78 to 72.9 nM | 6.76 to 30.3 nM | – | – | –
CCCC[C@H]1C(=O)N(C)[C@@H](CCCC)C(=O)N[C@@H](CCCNC(=N)N)C(=O)NC(C(=O)NCC(N)=O)CSCC(=O)N[C@@H](Cc2ccccc2)C(=O)N(C)[C@@H](C)C(=O)N[C@@H](CC(N)=O)C(=O)N2CCC[C@H]2C(=O)N[C@@H](Cc2cnc[nH]2)C(=O)N[C@@H](CC(C)C)C(=O)N[C@@H](CCNC(=O)C2CCCCC2)C(=O)N[C@@H](Cc2c[nH]c3ccccc23)C(=O)N[C@@H](CO)C(=O)N[C@@H](Cc2c[nH]c3ccccc23)C(=O)N1C (stereo partly shown) [Example 1021] | – | – | – | 262 nM | 180 nM
CCCC[C@H]1C(=O)N(C)[C@@H](CCCC)C(=O)N[C@@H](CCCNC(=N)N)C(=O)N[C@H](C(=O)NCC(N)=O)CSCC(=O)N[C@@H](Cc2ccccc2)C(=O)N(C)[C@@H](C)C(=O)N[C@@H](CC(N)=O)C(=O)N2CCC[C@H]2C(=O)N[C@@H](Cc2cnc[nH]2)C(=O)N[C@@H](CC(C)C)C(=O)N2CCCC[C@H]2C(=O)N[C@@H](Cc2c[nH]c3ccccc23)C(=O)N[C@@H](CO)C(=O)N[C@@H](Cc2c[nH]c3ccccc23)C(=O)N1C [Example 1196] ({CH2CO}-F[NMeA]NPHL[Pip]WSW[NMeNle][NMeNle]RCG-NH2; thioether N-14) | 4.78 to 72.9 nM | > 30.5 nM | – | – | –
CCCC[C@H]1C(=O)N(C)CC(=O)N[C@@H](CC(=O)O)C(=O)N[C@@H](C(C)C)C(=O)N(C)[C@@H](Cc2ccccc2)C(=O)N[C@@H](Cc2ccc(O)cc2)C(=O)N(C)CC(=O)N[C@@H](Cc2c[nH]c3ccccc23)C(=O)N[C@@H](Cc2ccc(O)cc2)C(=O)N[C@@H](CC(C)C)C(=O)N[C@H](C(=O)NCC(N)=O)CSCC(=O)N[C@@H](Cc2ccc(F)c(F)c2)C(=O)N(C)[C@@H](Cc2ccccc2)C(=O)N1C [Example 3130] ({CH2CO}-[Phe(3,4-F2)][NMeF][NMeNle][Sar]DV[NMeF]Y[Sar]WYLCG-NH2; thioether N-13) | 0.158 to 4.71 nM | 6.76 to 30.3 nM | – | – | –
CCCC[C@H]1C(=O)N(C)CC(=O)N[C@@H](CC(=O)O)C(=O)N[C@@H](C(C)C)C(=O)N(C)[C@@H](Cc2ccccc2)C(=O)N[C@@H](Cc2ccc(OC)c(OC)c2)C(=O)N(C)CC(=O)N[C@@H](Cc2c[nH]c3ccccc23)C(=O)N[C@@H](Cc2ccc(O)cc2)C(=O)N[C@@H](CC(C)C)C(=O)N[C@H](C(=O)NCC(N)=O)CSCC(=O)N[C@@H](Cc2ccccc2)C(=O)N(C)[C@@H](Cc2ccccc2)C(=O)N1C [Example 3533] ({CH2CO}-F[NMeF][NMeNle][Sar]DV[NMeF][Phe(3,4-(OMe)2)][Sar]WYLCG-NH2; thioether N-13) | – | 6.76 to 30.3 nM | 4.78 to 72.9 nM | – | –
CCCC[C@H]1C(=O)N(C)[C@@H](CCCC)C(=O)N[C@@H](CCCNC(=N)N)C(=O)N[C@H](C(=O)NCC(N)=O)CSCC(=O)N[C@@H](Cc2ccc(O)cc2)C(=O)N(C)[C@@H](C)C(=O)N[C@@H](CC(N)=O)C(=O)N2CCC[C@H]2C(=O)N[C@@H](CN)C(=O)N[C@@H](CCC(=O)O)C(=O)N2CCC[C@H]2C(=O)N[C@@H](Cc2c[nH]c3ccccc23)C(=O)N[C@@H](CO)C(=O)N[C@@H](Cc2csc3ccccc23)C(=O)N1C [Example 1127] ({CH2CO}-Y[NMeA]NP[Dap]EPWS[Bta][NMeNle][NMeNle]RCG-NH2; thioether N-14) | 0.158 to 4.71 nM | 0.385 to 6.74 nM | – | – | –
CCCC[C@H]1C(=O)N(C)[C@@H](CCCC)C(=O)N[C@@H](CN)C(=O)N[C@H](C(=O)NCC(N)=O)CSCC(=O)N[C@@H](Cc2ccc(O)cc2)C(=O)N(C)[C@@H](C)C(=O)N[C@@H](CC(=O)O)C(=O)N2CCC[C@H]2C(=O)N[C@@H](CN)C(=O)N[C@@H](CC(=O)O)C(=O)N2C[C@H](O)C[C@H]2C(=O)N[C@@H](Cc2c[nH]c3ccccc23)C(=O)N[C@@H](CCN)C(=O)N[C@@H](Cc2csc3ccccc23)C(=O)N1C [Example 1224] ({CH2CO}-Y[NMeA]DP[Dap]D[Hyp]W[Dab][Bta][NMeNle][NMeNle][Dap]CG-NH2; thioether N-14) | 0.158 to 4.71 nM | 0.385 to 6.74 nM | – | – | –
CCCC[C@H]1C(=O)N(C)[C@@H](CCCC)C(=O)N[C@@H](CCC(=O)O)C(=O)N[C@H](C(=O)NCC(N)=O)CSCC(=O)N[C@@H](Cc2ccc(O)cc2)C(=O)N(C)[C@@H](C)C(=O)N[C@@H](CC(=O)O)C(=O)N2CCC[C@H]2C(=O)N[C@@H](Cc2c[nH]cn2)C(=O)N[C@@H](CCCCN)C(=O)N2C[C@H](OCc3ccccc3)C[C@H]2C(=O)N[C@@H](Cc2c[nH]c3ccccc23)C(=O)N[C@@H](CCCCN)C(=O)N[C@@H](Cc2c[nH]c3ccccc23)C(=O)N1C [Example 14004] ({CH2CO}-Y[NMeA]DPHK[Hyp](Bn)WKW[NMeNle][NMeNle]ECG-NH2; thioether N-14) | – | 0.385 to 6.74 nM | 0.158 to 4.71 nM | – | –
CCCCC1C(=O)N[C@@H](CCC(=O)O)C(=O)N[C@@H](CC(=O)O)C(=O)N[C@@H](C(C)C)C(=O)N(C)[C@@H](Cc2ccccc2)C(=O)N[C@@H](Cc2ccc(O)cc2)C(=O)N(C)CC(=O)N[C@@H](Cc2c[nH]c3ccccc23)C(=O)N[C@@H](Cc2ccc(O)cc2)C(=O)N[C@@H](CC(C)C)C(=O)N[C@H](C(=O)NCC(N)=O)CSCC(=O)N[C@@H](Cc2ccccc2)C(=O)N(C)[C@@H](Cc2ccccc2)C(=O)N1C (stereo partly shown) [Example 3500] (HELM PEPTIDE1{[O=C(C[*:3])[*:2]].F.[meF].[CCCCC(C(=O)[*:2])N(C)[*:1]].E.D.V.[meF].Y.[Sar].W.Y.L.C.G.[am]}$PEPTIDE1,PEPTIDE1,1:R3-14:R3$$$V2.0) | – | > 30.5 nM | > 74.3 nM | – | –
